# Reference: patent US20220241249A1, “PHARMACEUTICAL COMPOSITION AND KIT CONTAINING NOVEL PENAM DERIVATIVE OR SALT THEREOF AND ONE OR MORE COMPOUNDS SELECTED FROM beta-LACTAMASE INHIBITORY COMPOUND AND ANTIBACTERIAL COMPOUND OR SALTS THEREOF” (priority 2019, published 2022)
# Where two headings read alike, the source gives them in different places.
# Columns and labels:
# [1] = tested on: Klebsiella pneumoniae Y-1069 strain producing OXA-48 and CTX-M-15 (strain F); test: MIC of test compound alone or with β-lactamase inhibitor at 4 μg/mL; assay type: cell-based; settings: for MIC: Klebsiella pneumoniae, Strain F; for antibacterial activity in combination with a β-lactamase inhibitor versus without: for all the bacterial strains (strains B, C, D and F), summary of Tables 51 and 52
# Description: (§1) The evaluation test for antibacterial activity was performed in the same manner as in Test Example 1.
# (§2) An antibacterial activity evaluation test was performed in the same manner as in Test Example 6.
# (§3) As the bacterial strain, the strains B, C, and D producing β-lactamase and a Klebsiella pneumoniae Y-1069 strain (hereinafter, called strain F) producing OXA-48 and CTX-M-15 were used.
# [2] = tested on: Klebsiella pneumoniae Y-1133 strain producing NDM-1, OXA-48, and CTX-M-15 (strain C); test: as above; assay type: cell-based
# Description: (§4) By using a broth microdilution method, the combinational effect of a test compound and a β-lactamase inhibitor was evaluated.
# as §1
# Klebsiella pneumoniae Y-1133 strain producing NDM-1, OXA-48, and CTX-M-15 (hereinafter, called strain C),
# as §2, §3
# [3] = tested on: NDM-1-containing Klebsiella pneumoniae strain (Y-1007); test: Antibacterial activity evaluation test, MIC by broth microdilution (CLSI); assay type: cell-based
# Procedure, shortened: (§5)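 MIC (μg/mL) = lowest drug concentration showing no visible bacterial growth after 16–20 h at 35° C. in cation-adjusted Mueller Hinton broth. Inoculum: agar-grown cells at 0.5 McFarland, diluted 10-fold.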
# [4] = tested on: OXA-48-containing Klebsiella pneumoniae strain (Y-1062); test: as above; assay type: cell-based
# Procedure, shortened: as §5
# [5] = tested on: CTX-M-15-containing Escherichia coli strain (TK-1747); test: as above; assay type: cell-based
# Procedure, shortened: as §5
# [6] = tested on: KPC-2-containing Klebsiella pneumoniae strain (Y-995); test: as above; assay type: cell-based
# Procedure, shortened: as §5
# [7] = tested on: VIM-2-containing Pseudomonas aeruginosa strain (S-3779); test: as above; assay type: cell-based
# Procedure, shortened: as §5
# [8] = tested on: Pseudomonas aeruginosa strain ATCC27853; test: as above; assay type: cell-based; settings: Pseudomonas aeruginosa, ATCC27853
# Procedure, shortened: as §5
# [9] = tested on: IMP-1-containing Pseudomonas aeruginosa strain (S-2838); test: as above; assay type: cell-based
# Procedure, shortened: as §5
# [10] = tested on: GES-19 and GES-20-containing Pseudomonas aeruginosa strain (S-3759); test: as above; assay type: cell-based
# Procedure, shortened: as §5
# [11] = tested on: AmpC-derepressed Pseudomonas aeruginosa mutant strain (S-3028); test: as above; assay type: cell-based
# Procedure, shortened: as §5
# [12] = tested on: Escherichia coli TK-3113 strain producing IMP-8 (strain D); test: MIC of test compound alone or with β-lactamase inhibitor at 4 μg/mL; assay type: cell-based
# Description: as §4, §1
# Escherichia coli TK-3113 strain producing IMP-8 (hereinafter, called strain D),
# as §2, §3
# [13] = tested on: Klebsiella pneumoniae Y-1020 strain producing KPC-3 and SHV-12 (strain B); test: as above; assay type: cell-based; settings: for MIC: Strain B
# Description: as §4, §1
# [14] = tested on: multidrug-resistant Pseudomonas aeruginosa strain (S-2838 strain); test: Test for protection against systemic infection in mouse with multidrug-resistant Pseudomonas aeruginosa; assay type: in vivo; settings: sc, 72 h, read-out: survival rate 3 days after the inoculation with bacteria
# Description: As mice, ICR male SPF mice (4 weeks old: 10 mice per group) were used. Clinically isolated multidrug-resistant Pseudomonas aeruginosa strain (S-2838 strain) cultured overnight on a Mueller-Hinton agar plate at 37° C. was cultured on a cation-adjusted Mueller Hinton medium for 5 hours, and then diluted 20-fold with a 10% mucin/phosphate buffer, thereby preparing an inoculum. An infection was induced by intraperitoneally inoculating the mice with the inoculum at 0.5 mL (about 10^6 CFU/mouse). Each test compound was dissolved in physiological saline, and 1 hour after the infection, the compound was subcutaneously administered once to the mice at 40 mg/kg. The control group was administered with the same amount of physiological saline used as a vehicle. The number of surviving mice was recorded 3 days after the infection.
# A test for protection against systemic infection in a mouse with multidrug-resistant Pseudomonas aeruginosa was performed in the same manner as in Test Example 2.
# [15] = tested on: Escherichia coli TK-1747 strain producing CTX-M-15 (strain A); test: MIC of test compound alone or with β-lactamase inhibitor at 4 μg/mL; assay type: cell-based
# Description: as §4, §1
# Escherichia coli TK-1747 strain producing CTX-M-15 (hereinafter, called strain A),
# [16] = tested on: Escherichia coli TK-1765 strain producing CMY-2 (strain E); test: as above; assay type: cell-based
# Description: as §4, §1
# Escherichia coli TK-1765 strain producing CMY-2 (hereinafter, called strain E)
# [17] = test compound alone (β-lactamase inhibitor N/A)
# [18] = Klebsiella pneumoniae, with ZID at 4 μg/mL
# [19] = Escherichia coli, test compound alone (β-lactamase inhibitor N/A)
# [20] = Escherichia coli, with NAC at 4 μg/mL
# [21] = Escherichia coli, with ZID at 4 μg/mL
# [22] = Klebsiella pneumoniae, test compound alone (β-lactamase inhibitor N/A), read-out: MIC
# [23] = Klebsiella pneumoniae, with AVI at 4 μg/mL, read-out: MIC
# [24] = Klebsiella pneumoniae, with CVA at 4 μg/mL, read-out: MIC
# [25] = Klebsiella pneumoniae, with NAC at 4 μg/mL, read-out: MIC
# [26] = Klebsiella pneumoniae, with ZID at 4 μg/mL, read-out: MIC
smiles,measurement,setting,value
"C=C(O/N=C(\C(=O)NC1C(=O)N2C[C@@](C(=O)O)(N3CCN(NC(=O)C(=O)c4ccc(O)c(O)c4Cl)C3=O)S[C@H]12)c1csc(N)n1)C(=O)O (stereo partly drawn) [Example 144, (3R,5R,6R)-6-((Z)-2-(2-aminothiazol-4-yl)-2-(((1-carboxyvinyl)-oxy)imino)acetamido)-3-(3-(2-(2-chloro-3,4-dihydroxyphenyl)-2-oxoacetamido)-2-oxo-imidazolidin-1-yl)-7-oxo-4-thia-1-azabicyclo-[3.2.0]heptane-3-car-boxylic acid]",MIC,[1]; [17],4 µg/mL
same,MIC,[1]; with AVI at 4 μg/mL,0.25 µg/mL
same,MIC,[1]; with CVA at 4 μg/mL,2 µg/mL
same,MIC,[1]; with NAC at 4 μg/mL,0.06 µg/mL
same,MIC,[1]; with SBT at 4 μg/mL,2 µg/mL
same,MIC,[1]; with TAZ at 4 μg/mL,2 µg/mL
same,MIC,[1]; with ZID at 4 μg/mL,0.03 µg/mL
same,antibacterial activity in combination with a β-lactamase inhibitor versus without,[1],higher antibacterial activity
same,MIC,[2]; [18],< 0.015 µg/mL
same,Antibacterial activity (MIC) Klebsiella pneumoniae Y-1007,[3],< 0.12 µg/mL
same,Antibacterial activity (MIC) Klebsiella pneumoniae Y-1062,[4],0.5 µg/mL
same,Antibacterial activity (MIC) Escherichia coli TK-1747,[5],< 0.12 µg/mL
same,Antibacterial activity (MIC) Klebsiella pneumoniae Y-995,[6],< 0.12 µg/mL
same,Antibacterial activity (MIC) Pseudomonas aeruginosa S-3779,[7],0.25 µg/mL
same,Antibacterial activity (MIC) Pseudomonas aeruginosa ATCC 27853,[8],0.25 µg/mL
same,Antibacterial activity (MIC) Pseudomonas aeruginosa S-2838,[9],32 µg/mL
same,Antibacterial activity (MIC) Pseudomonas aeruginosa S-3759,[10],1 µg/mL
same,Antibacterial activity (MIC) Pseudomonas aeruginosa S-3028,[11],< 0.12 µg/mL
same,MIC,[12]; [19],0.5 µg/mL
same,MIC,"[12]; Escherichia coli, with AVI at 4 μg/mL",0.25 µg/mL
same,MIC,"[12]; Escherichia coli, with CVA at 4 μg/mL",0.25 µg/mL
same,MIC,[12]; [20],< 0.015 µg/mL
same,MIC,"[12]; Escherichia coli, with SBT at 4 μg/mL",0.25 µg/mL
same,MIC,"[12]; Escherichia coli, with TAZ at 4 μg/mL",0.125 µg/mL
same,MIC,[12]; [21],< 0.015 µg/mL
same,MIC,[13]; [22],1 µg/mL
same,MIC,[13]; [23],0.25 µg/mL
same,MIC,[13]; [24],0.25 µg/mL
same,MIC,[13]; [25],< 0.015 µg/mL
same,MIC,[13]; [26],0.03 µg/mL
CC(C)(O/N=C(\C(=O)NC1C(=O)N2C[C@@](C(=O)O)(N3CCN(NC(=O)/C(=N\O)c4ccc(O)c(O)c4Cl)C3=O)S[C@H]12)c1csc(N)n1)C(=O)O (stereo partly shown) [Example 117],MIC,[3]; Klebsiella pneumoniae,< 0.06 µg/mL
same,MIC,[4]; Klebsiella pneumoniae,0.5 µg/mL
same,MIC,[5]; Escherichia coli,0.12 µg/mL
same,MIC,[6]; Klebsiella pneumoniae,0.25 µg/mL
same,MIC,[7]; Pseudomonas aeruginosa,0.5 µg/mL
same,MIC,[8],2 µg/mL
same,MIC,[9]; Pseudomonas aeruginosa,2 µg/mL
same,MIC,[10]; Pseudomonas aeruginosa,2 µg/mL
same,MIC,[11]; Pseudomonas aeruginosa,0.25 µg/mL
same,responders at 40 mg/kg,[14],≥ 90%
Nc1nc(/C(=N/OC2(C(=O)O)CC2)C(=O)N[C@@H]2C(=O)N3C[C@@](C(=O)O)(N4CCN(NC(=O)C(=O)c5ccc(O)c(O)c5Cl)C4=O)S[C@H]23)cs1 [Compound E],MIC,[2]; AVI added at 4 μg/mL,0.12 µg/mL
same,MIC,[2]; NAC added at 4 μg/mL,<0.015 µg/mL
same,MIC,[2]; ZID added at 4 μg/mL,<0.015 µg/mL
same,MIC,[2]; [17],1 µg/mL
same,MIC,[15]; AVI added at 4 μg/mL,<0.015 µg/mL
same,MIC,[15]; CVA added at 4 μg/mL,<0.015 µg/mL
same,MIC,[15]; NAC added at 4 μg/mL,<0.015 µg/mL
same,MIC,[15]; SBT added at 4 μg/mL,<0.015 µg/mL
same,MIC,[15]; TAZ added at 4 μg/mL,<0.015 µg/mL
same,MIC,[15]; ZID added at 4 μg/mL,<0.015 µg/mL
same,MIC,[15]; [17],0.06 µg/mL
same,MIC,[12]; AVI added at 4 μg/mL,0.12 µg/mL
same,MIC,[12]; NAC added at 4 μg/mL,<0.015 µg/mL
same,MIC,[12]; ZID added at 4 μg/mL,<0.015 µg/mL
same,MIC,[12]; [17],0.25 µg/mL
same,MIC,[16]; [17],1 µg/mL
same,MIC,[16]; with AVI at 4 μg/mL,0.06 µg/mL
same,MIC,[16]; with SBT at 4 μg/mL,0.5 µg/mL
same,MIC,[16]; with TAZ at 4 μg/mL,0.25 µg/mL
same,MIC,[16]; with VAB at 4 μg/mL,0.12 µg/mL
same,MIC,[13]; AVI added at 4 μg/mL,0.25 µg/mL
same,MIC,[13]; NAC added at 4 μg/mL,<0.015 µg/mL
same,MIC,[13]; VAB added at 4 μg/mL,1 µg/mL
same,MIC,[13]; ZID added at 4 μg/mL,<0.015 µg/mL
same,MIC,[13]; [17],4 µg/mL
same,antibacterial activity in combination with a β-lactamase inhibitor versus without,"[13]; for all the bacterial strains (strains A to E), summary of Tables 43 to 47",higher antibacterial activity
CC(C)(O/N=C(\C(=O)NC1C(=O)N2C[C@@](C(=O)O)(N3CCN(NC(=O)C(=O)c4c(F)cc(O)c(O)c4Cl)C3=O)S[C@H]12)c1csc(N)n1)C(=O)O (stereo partly shown) [Example 143],MIC,[1]; [17],8 µg/mL
same,MIC,[1]; with AVI at 4 μg/mL,0.25 µg/mL
same,MIC,[1]; with CVA at 4 μg/mL,4 µg/mL
same,MIC,[1]; with NAC at 4 μg/mL,0.12 µg/mL
same,MIC,[1]; with SBT at 4 μg/mL,4 µg/mL
same,MIC,[1]; with TAZ at 4 μg/mL,4 µg/mL
same,MIC,[1]; with ZID at 4 μg/mL,< 0.015 µg/mL
same,antibacterial activity in combination with a β-lactamase inhibitor versus without,[1],higher antibacterial activity
same,MIC,"[2]; Klebsiella pneumoniae, with NAC at 4 μg/mL",0.06 µg/mL
same,MIC,[2]; [18],< 0.015 µg/mL
same,Antibacterial activity (MIC) Klebsiella pneumoniae Y-1007,[3],< 0.06 µg/mL
same,Antibacterial activity (MIC) Klebsiella pneumoniae Y-1062,[4],2 µg/mL
same,Antibacterial activity (MIC) Escherichia coli TK-1747,[5],0.12 µg/mL
same,Antibacterial activity (MIC) Klebsiella pneumoniae Y-995,[6],0.12 µg/mL
same,Antibacterial activity (MIC) Pseudomonas aeruginosa S-3779,[7],0.25 µg/mL
same,Antibacterial activity (MIC) Pseudomonas aeruginosa ATCC 27853,[8],0.5 µg/mL
same,Antibacterial activity (MIC) Pseudomonas aeruginosa S-2838,[9],0.5 µg/mL
same,Antibacterial activity (MIC) Pseudomonas aeruginosa S-3759,[10],1 µg/mL
same,Antibacterial activity (MIC) Pseudomonas aeruginosa S-3028,[11],0.12 µg/mL
same,MIC,[12]; [19],0.5 µg/mL
same,MIC,[12]; [20],< 0.015 µg/mL
same,MIC,[12]; [21],< 0.015 µg/mL
same,MIC,[13]; [22],2 µg/mL
same,MIC,[13]; [23],0.5 µg/mL
same,MIC,[13]; [24],1 µg/mL
same,MIC,[13]; [25],0.03 µg/mL
same,MIC,"[13]; Klebsiella pneumoniae, with VOB at 4 μg/mL, read-out: MIC",1 µg/mL
same,MIC,[13]; [26],0.03 µg/mL
